Like-named read-outs stand apart in the source and are kept apart here.
Assays:
[1] = Single-dose crossover pharmacokinetic study of omeprazole (40 mg) alone or with clopidogrel (150 mg) in healthy volunteers (CYP2C19 EM and PM), plasma LC-MS; format: in vivo, human; conditions: for AUC0-∞, % increase / Cmax, % increase / E Half-life, % increase / Tmax, % increase / Cl, % increase: OMP+CLOP vs OMP alone; for half-life: read-out: E Half-life (converted)
Description: A group of twelve healthy volunteers were recruited for this study (divided into two groups), and written informed consent was obtained from all participants included in the study. […] Electrocardiogram, routine lab tests including hematological, kidney and liver function tests were performed for all the volunteers. They were physically examined and their medical history was also evaluated. All volunteers were non-smokers and abstained from taking any other medicine and juices in the week prior to the study. Volunteers were served standard breakfast and lunch during the study. […] This study was conducted in accordance to “World Medical Association (WMA) declaration of Helsinki-Ethical principles for medical research involving human subjects” and its amendments. The study was approved by the ethical committee, Department of Pharmacy, University of […], Pakistan. (Application number13/EC/Pharm. Ref number 12/Pharm). It was a single dose, 2-period, 2-sequence study with 14 days washout period. […] Approximately 3 mL of blood was collected from each volunteer at 0, 0.5, 1, 2, 3, 4, 6, and 8 hr after dose administration in heparinized tubes. After centrifugation, the plasma was transferred into properly labeled eppendroff tubes and stored at a temperature of -20 °C until analysis. OMP and its metabolites were extracted from the plasma using precipitation method and were analyzed using LCMS method. The mobile phase consisted of 0.1 % formic acid in acetonitrile: 0.1 % formic acid in water (40/60 v/v) using Hichrom RP18 (150 × 3.0 mm, 3 μm UK) as a stationary phase interfaced with a LTQ Orbit rap mass spectrometer. Pantoprazole was used as an internal standard (Ahmad et al., 2015[1]). Various PK parameters were calculated using the PK Solutions software. […] The AUC0-∞ was determined by trapezoidal rule. The elimination half life was determined by using first-order equation, i.e., The apparent oral clearance (CL/F) was determined by using equation, Dose/AUC0-∞. The pharmacokinetic data was interpreted statistically using SPSS software (version 16.0; SPSS, Inc, Chicago, IL). […] P < 0.05 was considered statistically significant.

[2] = ref McEwen et al., 1999; cited from earlier work
[3] = extensive metabolizers, OMP 40 mg + CLOP 150 mg
[4] = extensive metabolizers, OMP 40 mg alone
[5] = poor metabolizers, OMP 40 mg + CLOP 150 mg
[6] = poor metabolizers, OMP 40 mg alone
[7] = human, plasma, oral, 40 mg, extensive metabolizers, OMP 40 mg alone
[8] = human, plasma, oral, 40 mg, extensive metabolizers, OMP 40 mg alone, read-out: Tmax
[9] = human, plasma, oral, 40 mg, poor metabolizers, OMP 40 mg alone
[10] = human, plasma, oral, 40 mg, poor metabolizers, OMP 40 mg alone, read-out: Tmax
[11] = human, plasma, oral, extensive metabolizers (n = 8), OMP 40 mg + CLOP 150 mg, single dose, plasma, read-out: Cmax
[12] = human, plasma, oral, extensive metabolizers, OMP 40 mg + CLOP 150 mg
[13] = human, plasma, oral, extensive metabolizers, OMP 40 mg + CLOP 150 mg, read-out: Tmax
[14] = human, plasma, oral, poor metabolizers (n = 4), OMP 40 mg + CLOP 150 mg, single dose, plasma, read-out: Cmax
[15] = human, plasma, oral, poor metabolizers, OMP 40 mg + CLOP 150 mg
[16] = human, plasma, oral, poor metabolizers, OMP 40 mg + CLOP 150 mg, read-out: Tmax
[17] = human, plasma, po, 40 mg, extensive metabolizers (n = 8), OMP 40 mg alone, single oral dose, plasma, read-out: Cmax
[18] = human, plasma, po, 40 mg, poor metabolizers (n = 4), OMP 40 mg alone, single oral dose, plasma, read-out: Cmax

Row | AUC0-∞, % increase ([1]; extensive metabolizers) | Cmax, % increase ([1]; extensive metabolizers) | E Half-life, % increase ([1]; extensive metabolizers) | Tmax, % increase ([1]; extensive metabolizers) | AUC0-∞, % increase ([1]; poor metabolizers) | Cmax, % increase ([1]; poor metabolizers) | Tmax, % increase ([1]; poor metabolizers) | AUC(0-inf) [1, 7] [ng·h/mL] | half-life [1, 7] [h] | Tmax [1, 8] [h] | AUC(0-inf) [1, 9] [ng·h/mL] | half-life [1, 9] [h] | Tmax [1, 10] [h] | Cmax [1, 11] [ng/mL] | AUC(0-inf) [1, 12] [ng·h/mL] | half-life [1, 12] [h] | Tmax [1, 13] [h] | Cmax [1, 14] [ng/mL] | AUC(0-inf) [1, 15] [ng·h/mL] | half-life [1, 15] [h] | SMILES | further results
1 | -14.22% ± 2.80 | -16.23% ± 5.8 | -8.30% ± 6.1 | -8.23 ± 4.3% | -1.73% ± 2.38 | -4.9% ± 3.61 | 5.20% ± 4.0 | – | – | – | – | – | – | – | – | – | – | – | – | – | COc1ccc2nc([S+]([O-])Cc3ncc(CO)c(OC)c3C)[nH]c2c1 (centres unmarked) [5-OH-OMP, 5-hydroxyomeprazole] | Cmax ([1]; extensive metabolizers (n = 8), OMP 40 mg + CLOP 150 mg, single dose, plasma): 401 ± 35 ng/mL; Cmax ([1]; extensive metabolizers (n = 8), OMP 40 mg alone, single oral dose, plasma): 562 ± 53 ng/mL; AUC0-∞ [1, 3]: 1615 ± 401 ng·h/mL; E Half-life [1, 3]: 1.097 ± 0.106 h; Tmax [1, 3]: 2.49 ± 0.281 h; AUC0-∞ [1, 4]: 2203 ± 619 ng·h/mL; E Half-life [1, 4]: 1.24 ± 0.129 h; Tmax [1, 4]: 2.723 ± 0.394 h; Cmax ([1]; poor metabolizers (n = 4), OMP 40 mg + CLOP 150 mg, single dose, plasma): 373 ± 32 ng/mL; Cmax ([1]; poor metabolizers (n = 4), OMP 40 mg alone, single oral dose, plasma): 407 ± 46 ng/mL; AUC0-∞ [1, 5]: 1566 ± 90 ng·h/mL; E Half-life [1, 5]: 2.828 ± 0.188 h; Tmax [1, 5]: 3.138 ± 0.251 h; AUC0-∞ [1, 6]: 1607 ± 126 ng·h/mL; E Half-life [1, 6]: 2.588 ± 0.111 h; Tmax [1, 6]: 2.988 ± 0.311 h
2 | – | – | – | – | – | – | – | – | – | – | – | – | – | – | – | – | – | – | – | – | COC(=O)[C@H](c1ccccc1Cl)N1CCc2sccc2C1 [CLOP, clopidogrel] | oral bioavailability [2]: less than 50%
3 | 9.33% ± 5.13 | – | 6.31% ± 4.31 | 0.043% ± 0.0204 | 4.11% ± 1.68 | 5.46% ± 2.08 | -0.78% ± 0.32 | 4040 ± 282 | 1.05 ± 0.187 | 2.8 ± 0.178 | 8820 ± 778 | 1.58 ± 0.058 | 2.99 ± 0.411 | 1090 ± 146 | 4900 ± 620 | 1.13 ± 0.185 | 2.9 ± 0.228 | 1630 ± 116 | 9070 ± 861 | 1.51 ± 0.049 | COc1ccc2[nH]c([S+]([O-])Cc3ncc(C)c(OC)c3C)nc2c1 (centres unmarked) [OMP, omeprazole] | drug metabolite ratio [AUC]OMP/5-OH-OMP ([1]; EM): 1.94 ±0.602; drug metabolite ratio [AUC]OMP/OMP-S ([1]; EM): 13.64 ± 2.711; drug metabolite ratio [AUC]OMP/5-OH-OMP ([1]; PM): 9.84 ± 4.543; drug metabolite ratio [AUC]OMP/OMP-S ([1]; PM): 9.85 ± 4.98; Cl (apparent oral clearance, Dose/AUC0-∞) [1, 3]: 1.94445 ± 0.356 mL/min/kg; Cl (apparent oral clearance, Dose/AUC0-∞) [1, 4]: 2.29722 ± 0.38992 mL/min/kg; Cl, % increase ([1]; extensive metabolizers): -15.42% ± 4.92; Tmax [1, 16]: 2.98 ± 0.414 h; Cmax [1, 17]: 890 ± 83 ng/mL; Cmax [1, 18]: 1410 ± 146 ng/mL; Cl (apparent oral clearance, Dose/AUC0-∞) [1, 5]: 0.88245 ± 0.125 mL/min/kg; Cl (apparent oral clearance, Dose/AUC0-∞) [1, 6]: 0.97735 ± 0.144 mL/min/kg; Cl, % increase ([1]; poor metabolizers): -9.6% ± 1.72; E Half-life, % increase ([1]; poor metabolizers): -4.73% ± 3.06
4 | 5.01% ± 1.57 | 8.01% ± 2.0 | 3.81% ± 1.70 | -2.5% ± 1.18 | 2.32% ± 2.9 | – | -3.28% ± 0.60 | 535 ± 58 | 2.37 ± 0.472 | 2.72 ± 0.278 | 1500 ± 118 | 3.34 ± 0.438 | 3.06 ± 0.17 | 198 ± 26 | 612 ± 70 | 2.48 ± 0.496 | 2.65 ± 0.255 | 431 ± 56 | 1520 ± 102 | 3.14 ± 0.44 | COc1ccc2nc(S(=O)(=O)Cc3ncc(C)c(OC)c3C)[nH]c2c1 [OMP-S, omeprazole sulfone] | Tmax [1, 16]: 3 ± 0.077 h; Cmax [1, 17]: 175 ± 24 ng/mL; Cmax [1, 18]: 444 ± 53 ng/mL; E Half-life, % increase ([1]; poor metabolizers): -6.08% ± 0.96

From publication PMC5427475, “Effect of clopidogrel on the hydroxylation and sulfoxidation of omeprazole: A single dose study in healthy human volunteers” (EXCLI Journal, 2017)
